Measured values as given in patent US5658886A, “Acridinone derivative, compositions containing same and a method for using same to treat Chlamydia trachomatis” (Limited Liability Partnership "POLYSAN", priority 1993, dated 1997).
Where a name gives a salt, the structure may show the parent alone. Read-outs that look alike come from different tables or passages of the source.

Key:
[1] = in vivo; conditions: mouse, in vivo
Procedure: (§1) Intravenous and intramuscular injections were given of 2000 mg/kg and less in two stages. The follow-up period was 14 days. The lethal dose (LD50) was calculated by the Kerber technique. […] 31, 1987.

[2] = tested on: ristal-strain mongrel white mice; assay: in vivo
Procedure: as §1

[3] = tested on: interferon; assay: Interferon-inducing activity in mice (titers in blood); assay type: in vivo, BALB mice; conditions: for Interferon titer: dose (mg/kg): cycloferone 200, thylorone 50, prototype 400-600
Procedure: At predetermined time intervals interferon titers were measured in the blood by conventional techniques on homologous cells […] grown in 96-well plates in a CO2 -containing incubator. The test-virus was the encephalomyocarditis virus.

[4] = tested on: human immunodeficiency virus (HIV); conditions: 0.08 mg/ml
Procedure: The cells were grown at the Russian Medical University (RMU) in tube medium--1640 containing 20% calf foetal serum at end concentration of 0.5-0.7×10^6 cells/ml. […] The cells were then incubated for 3-4 days at 37° C. with subsequent replacement of nutrient medium. On the fifth and seventh day after infection, the presence of virus-specific antigen was established through indirect immunofluorescence assay using anti-HIV antibodies.

[5] = tested on: C trachomatis; conditions: 100 mg/kg daily for 5 days
Procedure: Experiments were performed involving C trachomatis infection of non-line whim mice weighing 16-18 grams. […] Alternatively, a single tetracycline hydrochloride injection (100 mg/kg) was administered on conventional schedule for 5 days.
Therapeutic effectiveness was evaluated by cytoscopic examination of stained smears from lymph nodes and the lung for pathogenic multiplication.

[6] = tested on: hepatocytes (liver); assay: Anti-promotive activity: hepatocytic cohesion; assay type: in vivo, BALB/c mice
Procedure: Studies were performed on female BALB/c mice weighing 25.0 grams.
The compounds were administered daily for 6 days in optimal doses. Controls were given physiological solution. Six hours after the last injection the animals were sacrificed. Sections of the lung and liver were cut out, submerged in 199 medium, and cellular cohesion was measured. Measurements were performed with a micro-manipulator by modified Kuman technique. See Modianova E. A., Voprosy onkologii, 19(6): 83-88 (1973).
For each experimental point, cellular cohesion was measured in 4-5 mice. One tissue segment from each of the mice measuring 10-30 cells was examined.

[7] = tested on: Peripheral-blood lymphocytes; assay: Interferon induction in cell culture, peripheral-blood lymphocytes; assay type: cell-based, BALB mice
From the text: (§2) The initial concentration was 5×10^6 cells/milliliter. The dynamics of interferon accumulation were studied in the cultural fluid of the lymphocytes grown on plastic plates in the presence of CO2.

[8] = tested on: T-lymphocytes; assay: Interferon induction in cell culture, T-lymphocytes; assay type: cell-based, BALB mice
From the text: as §2

[9] = tested on: Splenocytes; assay: Interferon induction in cell culture, splenocytes; assay type: cell-based, BALB mice
From the text: as §2

[10] = tested on: B-lymphocytes; assay: Interferon induction in cell culture, B-lymphocytes; assay type: cell-based, BALB mice
From the text: as §2

## CN(C)CCOC(=O)Cn1c2ccccc2c(=O)c2ccccc21 [10-carboxymethyl-9-acridone dimethyl-aminoethylether chlorhydrate]
[1]; im
  LD50 at 336 h: 600 mg/kg
[1]; iv
  LD50 at 336 h: 400 mg/kg
[2]; parenteral
  toxicity upon parenteral application: low-toxicity
[2]; words, vs cycloferone
  level of toxicity compared to the compound of the present invention: same level of toxicity
[3]; 2 hours
  Interferon titer: 100 IU/ml
[3]; 4 hours
  Interferon titer: 1000 IU/ml
[3]; words, vs cycloferone
  interferonogenic activity compared to the compound of the present invention: lower interferonogenic activity

## Cc1cn([C@H]2C[C@H](N=[N+]=[N-])[C@@H](CO)O2)c(=O)[nH]c1=O [Azidothymidine, azidothymidine]
[4]; Day 5
  Number of cells containing HIV antigen by IIFR: 6.5%
[4]; Day 7
  Number of cells containing HIV antigen by IIFR: 4.7%

## CN(C)C1C(=O)C(C(N)=O)=C(O)C2(O)C(=O)C3=C(O)c4c(O)cccc4C(C)(O)C3CC12 (stereo not shown) [Tetracycline hydrochloride, tetracycline hydrochloride]
[5]; lung, 3 days
  Effectiveness Index: 1.8
[5]; lung, 7 days
  Effectiveness Index: 1.0
[5]; lymph nodes, 3 days
  Effectiveness Index: 0.9
[5]; lymph nodes, 7 days
  Effectiveness Index: 0.6

## CCN(CC)CCOc1ccc2c(c1)C(=O)c1cc(OCCN(CC)CC)ccc1-2 [Thylorone]
[6]; Intraperitoneal, 10.0 mg/kg, P >0.05
  Hepatocytic Cohesion: 0.053 ± 0.008 mg/1 cell
[6]; words, vs controls
  hepatocytic cohesion indices compared to controls: the same as in the controls
[7]; 24 hr
  Interferon titer: 40
[7]; 48 hr
  Interferon titer: 80
[7]; 72 hr
  Interferon titer: 320
[7]; 96 hr
  Interferon titer: 80
[7]; 120 hr
  Interferon titer: 10
[7]; 144 hr
  Interferon titer: < 10
[8]; 24 hr
  Interferon titer: 15
[8]; 48 hr
  Interferon titer: 60
[8]; 72 hr
  Interferon titer: 5000
[8]; 96 hr
  Interferon titer: 3600
[8]; 120 hr
  Interferon titer: 960
[8]; 144 hr
  Interferon titer: 5
[9]; 24 hr
  Interferon titer: 15
[9]; 48 hr
  Interferon titer: 30
[9]; 72 hr
  Interferon titer: 640
[9]; 96 hr
  Interferon titer: 320
[9]; 120 hr
  Interferon titer: 15
[9]; 144 hr
  Interferon titer: < 5
[10]; 24 hr
  Interferon titer: 15
[10]; 48 hr
  Interferon titer: 30
[10]; 72 hr
  Interferon titer: 320
[10]; 96 hr
  Interferon titer: < 10
[10]; 120 hr
  Interferon titer: < 10
[10]; 144 hr
  Interferon titer: 5
[3]; 1 hour
  Interferon titer: < 40 IU/ml
[3]; 2 hours
  Interferon titer: < 40 IU/ml
[3]; 4 hours
  Interferon titer: < 40 IU/ml
[3]; 8 hours
  Interferon titer: 40 IU/ml
[3]; 18 hours
  Interferon titer: 640 IU/ml
[3]; 24 hours
  Interferon titer: 20 IU/ml
[3]; 48 hours
  Interferon titer: < 10 IU/ml
